From US20090163577A1, “METHODS AND COMPOSITIONS FOR ANTAGONIZING ANTI-APOPTOTIC Bcl-2-FAMILY PROTEINS” (Burnham Institute for Medical Research, priority 2007, published 2009) come the findings set out here.

Series [1] relates to Jurkat cells. Put plainly: Cytotoxicity of GA analogs, live cells by Annexin V/PI, Jurkat. The note with it: 20 hrs, 0-50 μM.
Series [2] addresses T1, Bfl-1 (Homo sapiens, UniProt Q16548).
T1 sequence (Q16548 1-155 limits assumed): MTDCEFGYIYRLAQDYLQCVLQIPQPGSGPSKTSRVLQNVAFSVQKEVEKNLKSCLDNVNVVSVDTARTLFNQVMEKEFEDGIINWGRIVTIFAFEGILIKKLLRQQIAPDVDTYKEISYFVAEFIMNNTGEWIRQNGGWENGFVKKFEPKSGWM
Put plainly: FPA competitive FITC-Bid BH3 peptide displacement, Bfl-1 (also HTS). The note with it: FPA, FITC-Bid BH3 peptide, compared with GA.

Series [3] deals with Bcl-2 over-expressing HL-60 cells. Put plainly: Cytotoxicity in NEO-control vs Bcl-2 over-expressing HL-60 cells. It is filed as cell-based. The conditions noted are these: HL-60 Bcl-2 vs NEO-control, 8 hrs. From the text: Data are representative of at least 3 independent experiments.
Cell Culture, Transfection, and Apoptosis Assays.
We tested the cytotoxic activity of GA against HL-60 cells that had been stably transfected with NEO-control or Bcl-2-expression plasmids (Konopleva et al., Blood 95:3929-3938, 2000).

For series [4], the system named is Jurkat cells.

Consider `CC(C)=CCCC1(C)C=Cc2c(O)c3c(c(CC=C(C)C)c2O1)OC12C(=CCCC1C(C)(C)O[C@@]2(C/C=C(\C)C(=O)O)C(=O)O)C3=O` (some centres unmarked) [Garcinolic acid], for which, in series [1], the “cytotoxic activity against cultured leukemia cells” value is given as “non-toxic”. Besides, the “activity in BH3 displacement assays” value in series [2] is on record as “greatly reduced activity”. Turning to `CN[C@@H]1C[C@H]2O[C@@](C)([C@@H]1OC)n1c3ccccc3c3c4c(c5c6ccccc6n2c5c31)C(=O)NC4` [staurosporine, reference compound], the “effect of Bcl-2 over-expression on cytotoxicity” value in series [3] is “block to apoptosis”. Regarding `CC(C)=CCC[C@]1(C)C=Cc2c(O)c3c(c(CC=C(C)C)c2O1)O[C@]12C(C[C@@H]4CC1C(C)(C)O[C@@]2(C/C=C(/C)C(=O)O)C4O)C3=O` (some centres unmarked) [tetrahydro-GA], the “activity in BH3 displacement assays” value in series [2] is on record as “greatly reduced activity”. Moreover, the “cytotoxic potency relative to GA (fold less potent)” value in series [4] is given as about 50 fold.
